Experiments:
[1] = system: production of prostaglandin E2 (PGE2); assay: Production of prostaglandin E2 (PGE2) in cultures of mouse peritoneal cells stimulated with LPS (ELISA kit); format: cell-based, mice; conditions: for Production of prostaglandins IC50 (μmol · 1^−1) average value and range of values: Table 3B, 6 h; for Production of prostaglandins in % of the controls: Table 3A, substance 50 μmol·l^−1, 6 h
Experimental: (§1) Under in vitro conditions, the effect of the pyrimidine compounds according to this invention was tested in terms of the production of nitric oxide (NO) and in terms of the production of prostaglandin E2 (PGE2) in cultures of the peritoneal cells of mice.
The influence on the production of prostaglandin E2 (PGE2) in vitro caused by the activity of the pyrimidine compounds according to the submitted invention was determined in cultures of the peritoneal cells of mice using a commercial kit (R&DSystems). The concentrations of PGE2 after lipopolysacharide (LPS) stimulation reached in the individual experiments values in a range of 22 to 91 ng·ml^−1 and for the purposes of comparison between the experiments were considered as 100%. The influence of the substances on the production of PGE2 was evaluated in percentage with respect to the control values.
(§2) Experiments were performed on mice peritoneal cells C57BL/6 (Charles River, Germany—AnLabu).
(§3) NO production was induced using IFN-g (5000 pg/mL) plus LPS (100 pg/mL); evaluated (Griess reagent) after 24 h of the cell cultivation (2×10^6/mL). PGE2 was induced using LPS (10 ng/mL); evaluated (ELISA) following 6 h cultivation of cells (3×10^6/mL). Cell longevity was evaluated using WST-1 (tetrazolium salt), following 24 h cultivation of cells (1×10^6/mL). The values mentioned in the table represent the effects of the substances tested in a concentration of 50 μmol·l^−1.

[2] = system: production of nitric oxide (NO); assay: Production of nitric oxide (NO) in cultures of mouse peritoneal cells stimulated with IFN-γ plus LPS (Griess reagent); format: cell-based, mice; conditions: substance 50 μmol·l^−1, IFN-g plus LPS, 24 h
Experimental: as §1
NO is a product of the metabolism of L-arginine, quickly changes to […], which are then measured using the Griess reagent system. Under normal conditions, the production of NO is practically zero. It only occurs after some stimulation. In these experiments, interferon-gamma (IFN-γ) and bacterial lipopolysacharide (LPS) were used as stimulators. The values of NO induced in this way fluctuated in the individual experiments in a range from 52 to 89 μmol·l^−1; for the purposes of comparison between the experiments they were considered as 100%. The production of NO after the application of the substances was expressed in percentage with respect to the control values. (The lower the value, the higher the inhibition effect of the substances on NO production.) IC50 are the concentrations of the substances reducing the production of NO by 50% with respect to the controls.
as §2, §3

peritoneal cells of mice = assay: Cell viability of mouse peritoneal cells (WST-1 kit); format: cell-based; conditions: substance 50 μmol·l^−1, 24 h; for Cell viabilities in % of the controls: Table 3B; for Cell viability in % of the controls: Table 3A
Experimental: Cell viability was determined in the standard way using a WST-1 kit (Roche). The values of the viability of the control cells were for the purposes of comparison between experiments considered as 100%. The influence of the substances on the longevity of the cells was evaluated in percentage with respect to the control values.
as §2, §3

SMILES	Production of prostaglandins IC50 (μmol · 1^−1) average value and range of values [1]	Production of nitric oxide in % of the controls ([2]; Table 3B)	Cell viabilities in % of the controls (peritoneal cells of mice)	Production of prostaglandins in % of the controls [1]	Production of nitric oxide in % of the controls ([2]; Table 3A)	Cell viability in % of the controls (peritoneal cells of mice)
CCCCc1c(-c2ccc(OC)cc2)nc(N)nc1-c1cccs1 [Substance 88]	14.19 ± 4.00; n = 6 μmol · 1^−1	69.14 ± 9.10; n = 2 % of the controls	125.52 ± 5.28; n = 8 % of the controls	–	–	–
O=CNc1nc(Cl)c(Cc2ccccc2)c(Cl)n1 [Substance 59]	–	–	–	3.84 ± 0.11 % of the controls	0.15 ± 0.01 % of the controls	58.75 ± 5.34 % of the controls
CCCCc1c(-c2ccco2)nc(N)nc1-c1ccco1 [Substance 100]	22.46 ± 7.25; n = 2 μmol · 1^−1	33.70 ± 2.71; n = 6 % of the controls	69.04 ± 4.47; n = 8 % of the controls	–	–	–
CCCCc1c(-c2ccc(F)cc2)nc(N)nc1-c1ccco1 [Substance 95]	70.79 ± 11.61; n = 4 μmol · 1^−1	61.96 ± 6.41; n = 6 % of the controls	119.71 ± 4.71; n = 8 % of the controls	–	–	–
CCCCc1c(-c2ccc(F)cc2)nc(N)nc1-c1ccoc1 [Substance 103]	66.80 ± 8.64; n = 4 μmol · 1^−1	66.44 ± 3.19; n = 6 % of the controls	147.62 ± 3.25; n = 8 % of the controls	–	–	–
C#CCc1c(Cl)nc(N=CN(C)C)nc1Cl [Substance 18]	–	–	–	78.55 ± 0.38 % of the controls	0.90 ± 0.22 % of the controls	67.89 ± 7.41 % of the controls
CCCCc1c(-c2ccccc2)nc(N)nc1-c1ccc(OC)cc1 [Substance 72]	3.61 ± 0.22; n = 4 μmol · 1^−1	55.45 ± 12.92; n = 6 % of the controls	108.35 ± 5.66; n = 8 % of the controls	–	–	–
CN(C)C=Nc1nc(Cl)c(-c2ccccc2)c(Cl)n1 [Substance 24]	–	–	–	18.45 ± 13.68 % of the controls	4.97 ± 2.00 % of the controls	80.00 ± 11.61 % of the controls
CCCCc1c(Cl)nc(N)nc1-c1cc2ccccc2s1 [Substance 132]	20.76 ± 9.35; n = 4 μmol · 1^−1	49.61 ± 6.36; n = 4 % of the controls	84.08 ± 4.71; n = 8 % of the controls	–	–	–
CCCCc1c(-c2cccnc2)nc(N)nc1-c1cc2ccccc2s1 [Substance 128]	31.10 ± 10.43; n = 4 μmol · 1^−1	64.91 ± 6.60 n = 4 % of the controls	79.62 ± 4.12; n = 8 % of the controls	–	–	–
CCCCc1c(-c2ccc(F)cc2)nc(N)nc1-c1cccnc1 [Substance 79]	47.26 ± 5.67; n = 2 μmol · 1^−1	62.58 ± 2.32; n = 6 % of the controls	104.50 ± 6.37; n = 8 % of the controls	–	–	–
CCCCc1c(-c2ccsc2)nc(N)nc1-c1cccs1 [Substance 111]	56.94 ± 12.51; n = 6 μmol · 1^−1	57.52 ± 1.81; n = 4 % of the controls	105.47 ± 5.51; n = 8 % of the controls	–	–	–
CCCCc1c(Cl)nc(S)nc1Cl [Substance 149]	26.35 ± 10.89; n = 4 μmol · 1^−1	24.12 ± 11.22; n = 6 % of the controls	99.14 ± 6.73; n = 8 % of the controls	–	–	–
CCCCc1c(Cl)nc(N)nc1-c1ccsc1 [Substance 115]	22.90 ± 11.94; n = 4 μmol · 1^−1	37.43 ± 8.29; n = 6 % of the controls	107.17 ± 2.03; n = 8 % of the controls	–	–	–

— patent publication US8883798B2, “Pyrimidine compounds inhibiting the formation of nitric oxide and prostaglandin E2, method of production thereof and use thereof” (Ustav Organicke Chemie a Biochemie Akademie Ved CR, V.V.I., priority 2011, dated 2014)
